Data set [1] can be described thus: Caco-2 Permeability Assay. The settings on record: human. The class given is in vitro ADME, human. From the text: The compounds of the invention may be tested for biological activity as MPO inhibitors by methods known to those skilled in the art. In addition, methods such as, for example, a Caco-2 assay, may be used to test the bioavailability of the compounds of the invention. A description of a Caco-2 permeability assay is as follows:
• The Caco-2 monolayer is widely used across the pharmaceutical industry as an in vitro model of the human small intestinal mucosa to predict the absorption of orally administered drugs.^1-4 • The Caco-2 cell model mimics processes such as transcellular transport, paracellular transport, and some aspects of efflux and active transport. • Readout: Papp (A→B), Papp (B→A), Efflux ratio, % Recovery • Controls: with and without Pgp inhibitor; Atenolol, Propanolol, Taxel-1
The Caco-2 cells are cultured to confluency, trypsinized and seeded onto a filter transwell insert at a density of ^˜32,000 cells/well in DMEM cell culture medium. Cells are grown in a humidified atmosphere of 5% CO2 at 37° C. Following an overnight attachment period (24 h after seeding), the cell medium is replaced with fresh medium in both the apical and basolateral compartments every other day. The cell monolayers are used for transport studies 21 days post seeding after measuring the TEER values ([…]). The apical sides and basolateral sides are washed consecutively with HBSS 2.5% (v/v), HEPES (pH 7.4) or HBSS 2.5% (v/v), HEPES 10% (v/v), and Fetal Bovine Serum (pH 7.4) at 37° C. in an incubator under an atmosphere of 5% CO2.
Donor working solution is prepared by dilution of DMSO stock of test article or positive control with transport media to 10 μM.
For A→B directional transport, the donor working solution (with test article or positive control, with or without Pgp inhibitor) is added to the apical (A) compartment and the transport media as receiver working solution is added to the basolateral (B) compartment. For B→A directional transport, the donor working solution (with positive control or test article, with or without Pgp inhibitor) is added to the basolateral (B) compartment and transport media as receiver working solution is added to the apical (A) compartment.
The cells are incubated in a humidified atmosphere of 5% CO2 at 37° C. for 90 minutes.
At the end of the incubation, samples are taken from both donor and receiver compartments and transferred into 96-well assay plates containing internal standard solution (IS) in each well. After centrifugation, the supernatant solutions are transferred to clean 96 well plates and analyzed by LC-MS/MS. The MS detection is performed using a Sciex API 4000 instrument. Each compound is analyzed by reversed phase HPLC.
The parameters Papp (apparent permeability) and efflux ratio are calculated as follows:
Papp=(dQ/dt)×(1/C0)×(1/A)
Efflux ratio=Papp[B→A]/Papp[A→B]
where dQ/dt is the permeability rate, C0 is the initial concentration in the donor compartment, and A is the surface area of the cell monolayer (0.33 cm^2). The Papp value is a rate measured in cm/s. Calculated Papp is ranked as low (<[…]), moderate (1-10×10^−6 cm/s), and high (>[…]).
Comparing the efflux ratios generated in the presence and absence of a Pgp inhibitor identifies whether the test article is a Pgp substrate.
Recovery is calculated as follows:
% Recovery=(Total compound mass in donor and receiver compartments at the end of the incubation/Initial compound mass in the donor compartment)×100.
(In general: Caco-2 monolayers are a common model of the intestinal barrier.)

The nature of data set [2]: Stability in Simulated Gastric Fluid (SGF). The class given is in vitro ADME. Set-up: key: % parent compound remaining relative to 0-minute sample. On the procedure:
(§1) Simulated gastric fluid (SGF) and Simulated intestinal fluid (SIF) stability are in vitro metrics indicating the ability of a compound to pass through the gastrointestinal tract […] or completely digested. An undigested or nearly undigested compound will usually survive gut transit long enough to be absorbed into the systemic circulation. Greater than 50% remaining intact compound at 1 hour indicates a relatively stable molecule that will likely be absorbed in the gut.
(§2) For each test compound, samples at a final concentration of 2 μg/mL are prepared in respective blank simulated gastric fluid with pepsin (pH 1.2) and simulated intestinal fluid with pancreatin (pH 6.8). All samples are incubated at 37° C. on a 150-rpm orbital shaker, and an aliquot is removed at predetermined time points (0 to 60 minutes). Samples are precipitated with three volumes of acetonitrile containing propranolol as internal standard, and centrifuged for 10 min at 2,000 g before LC-MS/MS analysis of the supernatant solutions. Percent parent compound remaining is determined relative to 0-minute incubation samples. If a sufficient number of time points are available, the degradation half-life is calculated based on the natural log of % compound remaining vs. time plot.

Data set [3] in a line: Stability in Simulated Intestinal Fluid (SIF). Also on record: key: % parent compound remaining relative to 0-minute sample. The class given is in vitro ADME. On the procedure:
as §1, §2

The next data set in a line: Plasma Stability. The class given is in vitro ADME, human. On the procedure:
Plasma stability estimates the ability of a compound to remain intact in the blood. For prodrugs that are intended to be hydrolyzed by plasma enzymes a certain level of instability in plasma indicates the compound is probably breaking down to the parent drug. A stability range of 25-75% remaining parent compound after 1 hour in plasma indicates the compound is likely breaking down to the parent drug molecule and a patient will be exposed to this parent molecule.
Assessment of plasma stability was carried out by individual incubations of drug candidates in fresh human plasma at a concentration of 1 μM for 1 hour at 37° C. After which, the samples were de-proteinized by addition of 2 volumes of acetonitrile containing 0.1% formic acid and internal standard, vortex mixed for 2 minutes and centrifuged at 4,000 rpm for 10 minutes to pellet precipitated protein. The resulting supernatant containing the drug candidates was diluted 5-fold with water containing 0.1% formic acid and submitted to LCMS/MS analysis. All determinations were done in triplicate. Plasma stability was expressed as percent of control remaining.
See Pelletier et al. ACS Med. Chem. Lett. 2018, 9, 752-756.

Setting [4] is: Caco-2, pH 7.4, donor 10 μM, 90 minutes, 37° C., direction not given.
Setting [5] is: % remaining at 1 h, SGF with pepsin pH 1.2, 2 μg/mL, 37° C.
[6] abbreviates: % remaining at 1 h, SIF with pancreatin pH 6.8, 2 μg/mL, 37° C.
[7] abbreviates: % remaining at 1 h, human plasma, 1 μM, 37° C.
Setting [8] is: Caco-2, pH 7.4, Caco-2 monolayer.

The source of these data is patent US20240067651A1 (Biohaven Therapeutics Ltd., priority 2019, published 2024).

Usually Papp stands for the rate of passage across a membrane or cell layer, normalised by area and donor concentration. `CC(C)OCCn1c(=S)[nH]c(=O)c2c1ccn2COC(=O)[C@@H]1CCCN1C(=O)OC(C)(C)C` [Example 1, (S)-tert-Butyl (1,2,3,4-tetrahydro-1-(2-isopropoxyethyl)-4-oxo-2-thioxopyrrolo[3,2-d]pyrimidin-5-yl)methyl pyrrolidine-1,2-dicarboxylate] gave a Papp at 90 min, 10 µM in data set [1] (setting [4]) of 37.1 ×10⁻⁶ cm/s. For the same molecule, the SGF in data set [2] (setting [5]) was 99%. The SIF in data set [3] (setting [6]) was 94%. The “human Plasma stability” value in the data set “Plasma Stability” (setting [7]) worked out at 92%.

Turning to `CC(C)OCCn1c(=S)[nH]c(=O)c2c1ccn2COC(=O)[C@@H]1CCC(=O)N1C(=O)OCc1ccccc1` [Example 4, 1-benzyl 2-{4-oxo-1-[2-(propan-2-yloxy)ethyl]-2-sulfanylidene-1H,2H,3H,4H,5H-pyrrolo[3,2-d]pyrimidin-5-yl}methyl (2S)-5-oxopyrrolidine-1,2-dicarboxylate], the Papp at 90 min, 10 µM in data set [1] (setting [4]) came to 13.4 ×10⁻⁶ cm/s. Besides, in data set [2] (setting [5]), the SGF is given as 97%. The SIF in data set [3] (setting [6]) was 94%. The “human Plasma stability” value in “Plasma Stability” (setting [7]) turned out to be 40%.

`CC(C)OCCn1c(=S)[nH]c(=O)c2c1ccn2COC(=O)CCNC(=O)OC(C)(C)C` [Example 6, {4-Oxo-1-[2-(propan-2-yloxy)ethyl]-2-sulfanylidene-1H,2H,3H,4H,5H-pyrrolo[3,2-d]pyrimidin-5-yl}methyl 3-{[(tert-butoxy)carbonyl]amino}propanoate] yielded a Papp at 90 min, 10 µM in data set [1] (setting [4]) of 17.9 ×10⁻⁶ cm/s. Moreover, in data set [2] (setting [5]), the SGF is given as 82%. Moreover, the SIF in data set [3] (setting [6]) is 67%. The “human Plasma stability” value in “Plasma Stability” (setting [7]) is 59%.

`CC(C)OCCn1c(=S)[nH]c(=O)c2c1ccn2COC(=O)CCCCNC(=O)OC(C)(C)C` [Example 7, {4-oxo-1-[2-(propan-2-yloxy)ethyl]-2-sulfanylidene-1H,2H,3H,4H,5H-pyrrolo[3,2-d]pyrimidin-5-yl}methyl 5-{[(tert-butoxy)carbonyl]amino}pentanoate]: the apparent permeability coefficient (Papp) at 90 min, 10 µM in data set [1] (setting [4]) was 14.7 ×10⁻⁶ cm/s. In addition, the SGF in data set [2] (setting [5]) is recorded as 66%. The SIF in data set [3] (setting [6]) is 40%. In addition, the “human Plasma stability” value in “Plasma Stability” (setting [7]) was 4%.

Molecule `CC(C)OCCn1c(=S)[nH]c(=O)c2c1ccn2COC(=O)CCN` [Example 8, Trifluoroacetic acid {4-oxo-1-[2-(propan-2-yloxy)ethyl]-2-sulfanylidene-1H,2H,3H,4H,5H-pyrrolo[3,2-d]pyrimidin-5-yl}methyl 3-aminopropanoate] displayed a Papp at 90 min, 10 µM in data set [1] (setting [4]) of 0.46 ×10⁻⁶ cm/s. Further, in data set [2] (setting [5]), the SGF was 97%. Further, in data set [3] (setting [6]), the SIF is recorded as 68%. The “human Plasma stability” value in the data set “Plasma Stability” (setting [7]) came out at 45%.

The molecule `CC(C)OCCn1c(SCOC(=O)C(C)(C)C)nc(=O)c2c1ccn2COC(=O)C(C)(C)C` [Example 144] gave a Papp at 90 min, 10 µM in data set [1] (setting [8]) of 5.11 ×10⁻⁶ cm/s.

For the molecule `CC(C)OCCn1c(SCOC(=O)c2ccccc2)nc(=O)c2c1ccn2COC(=O)c1ccccc1.O=C(O)C(F)(F)F` [Example 158], the Papp at 90 min, 10 µM in data set [1] (setting [8]) was determined as 5.37 ×10⁻⁶ cm/s.

With “tert-butyl N-(2-{2-[methyl({[{{4-oxo-1-[2-(propan-2-yloxy)ethyl]-1H,4H,5H-pyrrolo[3,2-d]pyrimidin-2-yl}sulfanyl)methoxy]carbonyl})ami-no]ethoxy}ethyl)carbamate [Example 379]”, the SGF in data set [2] (simulated gastric fluid, remaining at 1 h) was 93% remaining. The SIF in data set [3] (simulated intestinal fluid, remaining at 1 h) is on record as 69% remaining. Besides, the “human Plasma stability” value in the data set “Plasma Stability” (human plasma, remaining at 1 h) was found to be 0% remaining.

On to “{4-oxo-1-[2-(propan-2-yloxy)ethyl]-2-sulfanylidene-1H,2H,3H,4H,5H-pyrrolo[3,2-d]pyrimidin-5-yl}methyl (2R)-1-[2-(2-{[(tert-butoxy)carbonyl]amino}acetamido) acetyl]pyrrolidine-2-carboxylate [Example 405]”, for which the SGF in data set [2] (% remaining after 1 h in simulated gastric fluid) was 83% remaining. Besides, the SIF in data set [3] (% remaining after 1 h in simulated intestinal fluid) was 81% remaining. The “human Plasma stability” value in “Plasma Stability” (% remaining after 1 h in human plasma) amounted to 1% remaining.
